Measurements reported in publication PMC6112376, “Comprehensive Analyses and Prioritization of Tox21 10K Chemicals Affecting Mitochondrial Function by in-Depth Mechanistic Studies” (Environmental Health Perspectives, 2018).
Where a name gives a salt, the structure may show the parent alone. Read-outs that look alike come from different tables or passages of the source.

Tests used:
HepG2 cells [1] = conditions: for IC50: read-out: MMP assays IC50 (µM) HepG2
rat primary hepatocytes [2] = experiment: MMP assay in rat primary hepatocytes; conditions: for IC50: read-out: MMP assays IC50 (µM) Rat Hepatocytes
rat primary hepatocytes [3] = system: rat primary hepatocytes
HepG2 cells [4] = conditions: cited from earlier work
[5] = read-out: MMP assays IC50 (µM), qHTS-HepG2
[6] = HepG2 cells, single number from one experiment
[7] = rat hepatocytes, mean ± SD of three experiments
[8] = read-out: MMP assays IC50 (µM) qHTS-HepG2

| SMILES | MMP assays efficacy (%) HepG2 (HepG2 cells [1]) | IC50 (HepG2 cells [1]) [µM] | IC50 (rat primary hepatocytes [2]) [µM] | MMP assays efficacy (%) Rat Hepatocytes (rat primary hepatocytes [3]) | MMP assays efficacy (%) qHTS-HepG2 (HepG2 cells [4]) | IC50 (HepG2 cells [4]; [5]) [µM] | MMP assays IC50 (µM) HepG2 (HepG2 cells [1]) | MMP assays IC50 (µM) Rat Hepatocytes (rat primary hepatocytes [2]) | MMP assays IC50 (µM) qHTS-HepG2 (HepG2 cells [4]) | MMP assays efficacy (%) HepG2 (HepG2 cells [1]; [6]) [%] | IC50 (HepG2 cells [1]; [6]) [µM] | IC50 (rat primary hepatocytes [2]; [7]) [µM] | IC50 (HepG2 cells [4]; [8]) [µM] | MMP assays IC50 (µM) Rat Hepatocytes (rat primary hepatocytes [2]; [7]) | IC50 (rat primary hepatocytes [2]; Rattus norvegicus, Hepatocyte) [µM] |
| --- | --- | --- | --- | --- | --- | --- | --- | --- | --- | --- | --- | --- | --- | --- | --- |
| O=c1c(O)c(-c2ccc(O)c(O)c2)oc2cc(O)cc(O)c12 [Quercetin dihydrate] | -96% | 2.95 | 5.83 ± 4.93 | -71±22% | -98±4% | 6.2 ± 2.32 | – | – | – | – | – | – | – | – | – |
| O=C1OC(=O)C2C1C1(Cl)C(Cl)=C(Cl)C2(Cl)C1(Cl)Cl (stereo not drawn) [Chlorendic anhydride] | inactive | – | – | inactive | inactive | – | inactive | inactive | inactive | – | – | – | – | – | – |
| CC(=O)[O][Sn]([c]1ccccc1)([c]1ccccc1)[c]1ccccc1 [Triphenyltin acetate] | -94% | 1.12 | 24.1 ± 10.1 | -74±32% | -99±5% | 0.12 ± 0.04 | – | – | – | – | – | – | – | – | – |
| Cl.Nc1ccc(/N=N/c2ccccc2)c(N)c1 [C.I. Basic orange 2] | – | – | – | -34±7% | -82±19% | – | – | – | – | -113 | 19.9 | 24.9 ± 21.1 | 7.53 ± 5.61 | – | – |
| CC(C)C[C@H]1C(=O)N2CCC[C@H]2[C@]2(O)O[C@](NC(=O)[C@@H]3C=C4c5cccc6[nH]c(Br)c(c56)C[C@H]4N(C)C3)(C(C)C)C(=O)N12 [Bromocriptine mesylate] | -113% | 13.5 | 12.6 ± 1.6 | -74±34% | -111±8% | – | – | – | – | – | – | – | 11.2 ± 2.78 | – | – |
| CCN1\C(=C/C=C/C=C/c2sc3ccccc3[n+]2CC)Sc2ccccc21.[Cl-] [Dithiazanine chloride] | -79% | 0.15 | 2.45 | -77±9% | -56±6% | – | – | – | – | – | – | – | 0.27 | – | – |
| O=C(NCc1cccnc1)Nc1ccc([N+](=O)[O-])cc1 [Pyrinuron] | -81% | 28.2 | 25.8 ± 10.1 | -108±48% | -87±26% | 26.3 ± 1.71 | – | – | – | – | – | – | – | – | – |
| O=C1CCCc2c1cc1ccc3cccc4ccc2c1c34 [9,10-Dihydrobenzo[a]pyren-7(8H)-one] | inactive | – | 16.8 ± 7.33 | -79±35% | -90±6% | – | inactive | – | – | – | – | – | 9.81 ± 2.08 | – | – |
| CC=O [Acetaldehyde] | inactive | – | 6.65 ± 4.48 | -52±35% | -90±14% | – | inactive | – | – | – | – | – | 18 ± 6.38 | – | – |
| CC1(COc2ccc(CC3SC(=O)NC3=O)cc2)CCCCC1 (stereo not drawn) [Ciglitizone] | -97% | 14.1 | 9.92 ± 4.25 | -84±44% | -106±9% | – | – | – | – | – | – | – | 8.22 ± 1.6 | – | – |
| O=C1NC(=O)c2cccc3cccc1c23 [1H-Benzo[de]isoquinoline-1,3(2H)-dione] | -77% | 14.1 | 5.56 ± 8.92 | -43±22% | -77±24% | – | – | – | – | – | – | – | 8.31 ± 3.47 | – | – |
| [Ba+2].[Cl-].[Cl-] [Barium chloride] | -46% | 39.8 | – | inactive | -68±11% | – | – | inactive | – | – | – | – | 16.6 ± 8.5 | – | – |
| CC(=O)OCC(=O)[C@@]12OC(C)(C)O[C@@H]1C[C@H]1[C@@H]3C[C@H](F)C4=CC(=O)C=C[C@]4(C)[C@@]3(F)[C@@H](O)C[C@@]12C [Fluocinonide] | inactive | – | – | inactive | inactive | – | inactive | inactive | inactive | – | – | – | – | – | – |
| O=c1oc2ccccc2c(O)c1C(CC(O)c1ccc(-c2ccc(Br)cc2)cc1)c1ccccc1 (stereo not drawn) [Bromadiolone] | -108% | 4.35 | 3.4 ± 0.83 | -79±51% | -105±3% | – | – | – | – | – | – | – | 16.7 ± 1.13 | – | – |
| Nc1ccc(-c2ccc(N)c(N)c2)cc1N [3,3'-Diaminobenzidine] | -55% | 4.47 | 30.7 ± 28.3 | -62±22% | -115±16% | – | – | – | – | – | – | – | 13.7 ± 14.9 | – | – |
| COc1ccc(N)cc1N.O=S(=O)(O)O [2,4-Diaminoanisole sulfate] | -125% | 7.94 | 19.6 ± 19.3 | -58±24% | -95±6% | – | – | – | – | – | – | – | 2.51 ± 1.16 | – | – |
| CCCCCCCC[P+](CCCCCCCC)(CCCCCCCC)CCCCCCCC.[Br-] [Tetraoctylphosphonium bromide] | -105% | 0.32 | 6.82 ± 2.23 | -90±21% | -91±6% | 0.18 ± 0.12 | – | – | – | – | – | – | – | – | – |
| Cc1cc(Nc2ccccc2C(=O)O)ccc1Cl | -100% | 35.5 | 22.7 ± 16.2 | -92±11% | -99±8% | – | – | – | – | – | – | – | 12.8 ± 0.84 | – | – |
| Nc1ccc(-c2ccc(N)c(N)c2)cc1N [3,3',4,4'-Tetraaminobiphenyl tetrahydrochloride] | -82% | 2 | 9.46 ± 4.43 | -39±5% | -92±8% | – | – | – | – | – | – | – | 0.34 ± 0.26 | – | – |
| CC(=O)C1(C)CC2=C(CCCC2(C)C)CC1C (stereo not drawn) | – | – | – | inactive | -50±18% | – | – | – | – | -43 | 35.5 | – | 27.3 ± 20.4 | inactive | – |
| CC1(C)[C@@H](O)CC[C@]2(C)[C@H]3C(=O)C=C4[C@@H]5C[C@@](C)(C(=O)O)CC[C@]5(C)CC[C@@]4(C)[C@]3(C)CC[C@@H]12 [Glycyrrhetinic acid] | inactive | – | – | -44±24% | -88±53% | 40.1 ± 9.34 | inactive | – | – | – | – | – | – | – | 15.6 ± 2.52 |
